Assay results from ChEMBL document CHEMBL1201861, “Genomics of Drug Sensitity in Cancer screening data, Wellcome Trust Sanger Institute”.

How the values were obtained:
Assay in all cases: cells
[1] = tested on: CTB-1; format: functional, cell-based, Homo sapiens; settings: Homo sapiens, CTB-1
Description: SANGER: Inhibition of human CTB-1 cell growth in a cell viability assay.

[2] = tested on: Calu-6; format: functional, cell-based, Homo sapiens; settings: Homo sapiens, Calu-6;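 also: growth of human Calu-6 cells, read out by a cell viability assay, IC50 marking inhibition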
Description: SANGER: Inhibition of human Calu-6 cell growth in a cell viability assay.

[3] = tested on: D283 Med; format: functional, cell-based, Homo sapiens; settings: Homo sapiens, D283 Med
Description: SANGER: Inhibition of human D-283MED cell growth in a cell viability assay.

[4] = tested on: DJM-1; format: functional, cell-based, Homo sapiens; settings: Homo sapiens, DJM-1;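 also: growth inhibition of human DJM-1 cells, read out by a cell viability assay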
[5] = tested on: DOHH-2; format: functional, cell-based, Homo sapiens; settings: Homo sapiens, DOHH-2;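 also: growth inhibition of human DOHH-2 cells, read out with a cell viability assay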
Description: SANGER: Inhibition of human DOHH-2 cell growth in a cell viability assay.

[6] = tested on: EKVX; format: functional, cell-based, Homo sapiens; settings: Homo sapiens, EKVX;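 also: growth inhibition of human EKVX cells, read out with a cell viability assay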
Description: SANGER: Inhibition of human EKVX cell growth in a cell viability assay.

[7] = tested on: EW-1; format: functional, cell-based, Homo sapiens; settings: Homo sapiens, EW-1;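 also: growth inhibition of the human EW-1 cell line, read out by a cell viability assay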
Description: SANGER: Inhibition of human EW-1 cell growth in a cell viability assay.

[8] = tested on: EW-11; format: functional, cell-based, Homo sapiens; settings: Homo sapiens, EW-11;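 also: growth inhibition of human EW-11 cells, measured with a cell viability assay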
Description: SANGER: Inhibition of human EW-11 cell growth in a cell viability assay.

[9] = tested on: HD-MY-Z; format: functional, cell-based, Homo sapiens; settings: Homo sapiens, HD-MY-Z;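 also: growth inhibition of HD-MY-Z cells, read out with a cell viability assay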
Description: SANGER: Inhibition of human HD-MY-Z cell growth in a cell viability assay.

[10] = tested on: HL-60; format: functional, cell-based, Homo sapiens; settings: Homo sapiens, HL-60;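 also: growth inhibition of human HL-60 cells, read out with a cell viability assay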
Description: SANGER: Inhibition of human HL-60 cell growth in a cell viability assay.

[11] = tested on: HT; format: functional, cell-based, Homo sapiens; settings: Homo sapiens, HT
[12] = tested on: HT-144; format: functional, cell-based, Homo sapiens; settings: Homo sapiens, HT-144
[13] = tested on: JVM-2; format: functional, cell-based, Homo sapiens; settings: Homo sapiens, JVM-2;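 also: growth inhibition of JVM-2 cells determined by a cell viability assay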
Description: SANGER: Inhibition of human JVM-2 cell growth in a cell viability assay.

[14] = tested on: KARPAS-45; format: functional, cell-based, Homo sapiens; settings: Homo sapiens, KARPAS-45;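 also: inhibition of cell line growth, read out through a viability assay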
Description: SANGER: Inhibition of human KARPAS-45 cell growth in a cell viability assay.

[15] = tested on: KINGS-1; format: functional, cell-based, Homo sapiens; settings: Homo sapiens, KINGS-1;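 also: cell viability assay measuring suppression of KINGS-1 cell growth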
Description: SANGER: Inhibition of human KINGS-1 cell growth in a cell viability assay.

[16] = tested on: KNS-42; format: functional, cell-based; settings: Homo sapiens;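 also: growth inhibition of KNS-42 cells, read out with a cell viability assay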
Description: SANGER: Inhibition of human KNS-42 cell growth in a cell viability assay.

[17] = tested on: LOX IMVI; format: functional, cell-based, Homo sapiens; settings: Homo sapiens, LOX IMVI
Description: SANGER: Inhibition of human LOXIMVI cell growth in a cell viability assay.

[18] = tested on: Lu-65; format: functional, cell-based, Homo sapiens; settings: Homo sapiens, Lu-65;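 also: growth inhibition of Lu-65 cancer cells, read out by a cell viability assay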
Description: SANGER: Inhibition of human LU-65 cell growth in a cell viability assay.

[19] = tested on: MEG-01; format: functional, cell-based, Homo sapiens; settings: Homo sapiens, MEG-01;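 also: growth inhibition of MEG-01 cells, read out by a cell viability assay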
Description: SANGER: Inhibition of human MEG-01 cell growth in a cell viability assay.

[20] = tested on: MZ2-MEL; format: functional, cell-based, Homo sapiens; settings: Homo sapiens, MZ2-MEL;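 also: growth inhibition of MZ2-MEL cells read out with a cell viability assay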
Description: SANGER: Inhibition of human MZ2-MEL cell growth in a cell viability assay.

[21] = tested on: NCI-H1092; format: functional, cell-based, Homo sapiens; settings: Homo sapiens, NCI-H1092;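 also: cell growth inhibition measured with a cell viability assay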
Description: SANGER: Inhibition of human NCI-H1092 cell growth in a cell viability assay.

[22] = tested on: NCI-H1155; format: functional, cell-based, Homo sapiens; settings: Homo sapiens, NCI-H1155;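 also: cell growth inhibition measured by a viability assay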
Description: SANGER: Inhibition of human NCI-H1155 cell growth in a cell viability assay.

[23] = tested on: NCI-H1581; format: functional, cell-based, Homo sapiens; settings: Homo sapiens, NCI-H1581;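 also: cell growth inhibition read out by a viability assay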
Description: SANGER: Inhibition of human NCI-H1581 cell growth in a cell viability assay.

[24] = tested on: NCI-H2126; format: functional, cell-based, Homo sapiens; settings: Homo sapiens, NCI-H2126;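 also: growth inhibition of the cancer cell line, determined with a cell viability readout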
Description: SANGER: Inhibition of human NCI-H2126 cell growth in a cell viability assay.

[25] = tested on: NCI-H23; format: functional, cell-based, Homo sapiens; settings: Homo sapiens, NCI-H23;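 also: cell viability assay measuring growth inhibition of NCI-H23 cells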
Description: SANGER: Inhibition of human NCI-H23 cell growth in a cell viability assay.

[26] = tested on: NCI-H446; format: functional, cell-based, Homo sapiens; settings: Homo sapiens, NCI-H446;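 also: growth inhibition of NCI-H446 cells determined by a cell viability assay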
Description: SANGER: Inhibition of human NCI-H446 cell growth in a cell viability assay.

[27] = tested on: NCI-H69; format: functional, cell-based, Homo sapiens; settings: Homo sapiens, NCI-H69;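 also: growth inhibition of the cell line, read out with a cell viability assay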
Description: SANGER: Inhibition of human NCI-H69 cell growth in a cell viability assay.

[28] = tested on: NCI-H82; format: functional, cell-based, Homo sapiens; settings: Homo sapiens, NCI-H82;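 also: growth inhibition of NCI-H82 cells, measured with a cell viability readout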
Description: SANGER: Inhibition of human NCI-H82 cell growth in a cell viability assay.

[29] = tested on: SNU-5; format: functional, cell-based, Homo sapiens; settings: Homo sapiens, SNU-5;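 also: cell viability readout used to measure growth inhibition in human NCI-SNU-5 cells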
Description: SANGER: Inhibition of human NCI-SNU-5 cell growth in a cell viability assay.

[30] = tested on: NEC8; format: functional, cell-based, Homo sapiens; settings: Homo sapiens, NEC8;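 also: growth inhibition of human NEC8 cells, read out by a cell viability assay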
Description: SANGER: Inhibition of human NEC8 cell growth in a cell viability assay.

[31] = tested on: NKM-1; format: functional, cell-based, Homo sapiens; settings: Homo sapiens, NKM-1;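 also: growth inhibition of NKM-1 cells, read out with a cell viability assay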
Description: SANGER: Inhibition of human NKM-1 cell growth in a cell viability assay.

[32] = tested on: OMC-1; format: functional, cell-based, Homo sapiens; settings: Homo sapiens, OMC-1;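 also: growth inhibition of the OMC-1 cell line, measured by a cell viability assay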
[33] = tested on: P30-OHK; format: functional, cell-based, Homo sapiens; settings: Homo sapiens, P30-OHK;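 also: growth inhibition of the P30-OHK cell line, read out with a cell viability assay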
Description: SANGER: Inhibition of human P30-OHK cell growth in a cell viability assay.

[34] = tested on: PSN1; format: functional, cell-based, Homo sapiens; settings: Homo sapiens, PSN1;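 also: suppression of growth of human PSN1 cells, read out by a cell viability assay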
Description: SANGER: Inhibition of human PSN1 cell growth in a cell viability assay.

[35] = tested on: RCC10RGB; format: functional, cell-based, Homo sapiens; settings: Homo sapiens, RCC10RGB;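 also: growth inhibition of human RCC10RGB cells, read out by a cell viability assay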
Description: SANGER: Inhibition of human RCC10RGB cell growth in a cell viability assay.

[36] = tested on: RPMI-8226; format: functional, cell-based, Homo sapiens; settings: Homo sapiens, RPMI-8226
Description: SANGER: Inhibition of human RPMI-8226 cell growth in a cell viability assay.

[37] = tested on: SBC-1; format: functional, cell-based, Homo sapiens; settings: Homo sapiens, SBC-1;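 also: cell viability assay measuring growth inhibition of the SBC-1 cell line, IC50 being the concentration that halves growth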
Description: SANGER: Inhibition of human SBC-1 cell growth in a cell viability assay.

[38] = tested on: SK-MEL-1; format: functional, cell-based, Homo sapiens; settings: Homo sapiens, SK-MEL-1;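 also: growth inhibition of human SK-MEL-1 cells, read out by a cell viability assay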
Description: SANGER: Inhibition of human SK-MEL-1 cell growth in a cell viability assay.

[39] = tested on: SK-N-DZ; format: functional, cell-based, Homo sapiens; settings: Homo sapiens, SK-N-DZ; read-out: IC50;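 also: growth inhibition of the cancer cell line, read out through a viability assay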
Description: SANGER: Inhibition of human SK-N-DZ cell growth in a cell viability assay.

[40] = tested on: SK-UT-1; format: functional, cell-based, Homo sapiens; settings: Homo sapiens, SK-UT-1;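 also: growth inhibition of SK-UT-1 cells, measured by a cell viability assay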
Description: SANGER: Inhibition of human SK-UT-1 cell growth in a cell viability assay.

[41] = tested on: SW 954; format: functional, cell-based, Homo sapiens; settings: Homo sapiens, SW 954;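 also: growth inhibition of SW954 human cancer cells, read out as cell viability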
Description: SANGER: Inhibition of human SW954 cell growth in a cell viability assay.

[42] = tested on: A3-KAW; format: functional, cell-based, Homo sapiens; settings: Homo sapiens, A3-KAW;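 also: growth inhibition of human A3-KAW cells, read out with a cell viability assay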
Description: SANGER: Inhibition of human A3-KAW cell growth in a cell viability assay.

[43] = tested on: A388; format: functional, cell-based; settings: Homo sapiens;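 also: growth inhibition of human A388 cells, read out with a cell viability assay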
Description: SANGER: Inhibition of human A388 cell growth in a cell viability assay.

[44] = tested on: ALL-PO; format: functional, cell-based, Homo sapiens; settings: Homo sapiens, ALL-PO;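 also: growth inhibition of ALL-PO cells, read out by a cell viability assay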
Description: SANGER: Inhibition of human ALL-PO cell growth in a cell viability assay.

[45] = tested on: BV-173; format: functional, cell-based, Homo sapiens; settings: Homo sapiens, BV-173
Description: SANGER: Inhibition of human BV-173 cell growth in a cell viability assay.

[46] = tested on: TE-10; format: functional, cell-based, Homo sapiens; settings: Homo sapiens, TE-10;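 also: growth inhibition of TE-10 cells, measured by a cell viability assay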
Description: SANGER: Inhibition of human TE-10 cell growth in a cell viability assay.

[47] = tested on: TE-8; format: functional, cell-based, Homo sapiens; settings: Homo sapiens, TE-8;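 also: growth inhibition of TE-8 cells, measured with a cell viability readout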
Description: SANGER: Inhibition of human TE-8 cell growth in a cell viability assay.

[48] = tested on: TGBC1TKB; format: functional, cell-based, Homo sapiens; settings: Homo sapiens, TGBC1TKB;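 also: growth inhibition of TGBC1TKB cells, read out by a cell viability assay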
Description: SANGER: Inhibition of human TGBC1TKB cell growth in a cell viability assay.

[49] = tested on: VA-ES-BJ; format: functional, cell-based, Homo sapiens; settings: Homo sapiens, VA-ES-BJ;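 also: growth inhibition of the VA-ES-BJ cell line, read out by a cell viability assay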
Description: SANGER: Inhibition of human VA-ES-BJ cell growth in a cell viability assay.

## NC(=O)Nc1cc(-c2cccc(F)c2)sc1C(=O)N[C@H]1CCCNC1 [AZD-7762]
[1]
  IC50: 133 nM
[2]
  IC50: 1410 nM
[3]
  IC50: 137 nM
[4]
  IC50: 886 nM
[5]
  IC50: 131 nM
[6]
  IC50: > 2000 nM
[7]
  IC50: 189 nM
[8]
  IC50: 563 nM
[9]
  IC50: 62.5 nM
[10]
  IC50: 774 nM
[11]
  IC50: 1870 nM
[12]
  IC50: 338 nM
[13]
  IC50: > 2000 nM
[14]
  IC50: 168 nM
[15]
  IC50: 1420 nM
[16]
  IC50: > 2000 nM
[17]
  IC50: 429 nM
[18]
  IC50: > 2000 nM
[19]
  IC50: 346 nM
[20]
  IC50: > 2000 nM
[21]
  IC50: > 2000 nM
[22]
  IC50: 739 nM
[23]
  IC50: > 2000 nM
[24]
  IC50: > 2000 nM
[25]
  IC50: 248 nM
[26]
  IC50: 748 nM
[27]
  IC50: > 2000 nM
[28]
  IC50: > 2000 nM
[29]
  IC50: > 2000 nM
[30]
  IC50: 42 nM
[31]
  IC50: < 7.81 nM
[32]
  IC50: 575 nM
[33]
  IC50: 132 nM
[34]
  IC50: 591 nM
[35]
  IC50: > 2000 nM
[36]
  IC50: 175 nM
[37]
  IC50: > 2000 nM
[38]
  IC50: > 2000 nM
[39]
  IC50: 531 nM
[40]
  IC50: 186 nM
[41]
  IC50: 401 nM
[42]
  IC50: 88.1 nM
[43]
  IC50: > 2000 nM
[44]
  IC50: 242 nM
[45]
  IC50: 346 nM
[46]
  IC50: 910 nM
[47]
  IC50: 1120 nM
[48]
  IC50: 1920 nM
[49]
  IC50: 226 nM

## CC(C)C[C@H](NC(=O)[C@H](Cc1ccccc1)NC(=O)c1cnccn1)B(O)O [BORTEZOMIB]
[1]
  IC50: 9.67 nM
[2]
  IC50: 1.29 nM
[3]
  IC50: > 20 nM
[4]
  IC50: 3.63 nM
[5]
  IC50: > 20 nM
[6]
  IC50: 2.14 nM
[7]
  IC50: 5.31 nM
[8]
  IC50: > 20 nM
[9]
  IC50: 3.93 nM
[10]
  IC50: 4.67 nM
[11]
  IC50: 3.02 nM
[12]
  IC50: 0.576 nM
[13]
  IC50: 7.28 nM
[14]
  IC50: 3.54 nM
[15]
  IC50: 0.722 nM
[16]
  IC50: 0.258 nM
[17]
  IC50: 3.5 nM
[18]
  IC50: 5.84 nM
[19]
  IC50: 3.49 nM
[20]
  IC50: 0.407 nM
[21]
  IC50: 1.8 nM
[22]
  IC50: > 20 nM
[23]
  IC50: 12.3 nM
[24]
  IC50: 1.8 nM
[25]
  IC50: 12.1 nM
[26]
  IC50: > 20 nM
[27]
  IC50: 1.54 nM
[28]
  IC50: > 20 nM
[29]
  IC50: 5.17 nM
[30]
  IC50: 3.35 nM
[31]
  IC50: 2 nM
[32]
  IC50: 4.18 nM
[33]
  IC50: > 20 nM
[34]
  IC50: 1.01 nM
[35]
  IC50: 3.93 nM
[36]
  IC50: 2.35 nM
[37]
  IC50: 5.01 nM
[38]
  IC50: > 20 nM
[39]
  IC50: 3.26 nM
[40]
  IC50: 0.163 nM
[41]
  IC50: 2.9 nM
[42]
  IC50: 1.28 nM
[43]
  IC50: 0.356 nM
[44]
  IC50: > 20 nM
[45]
  IC50: > 20 nM
[46]
  IC50: 1.03 nM
[47]
  IC50: 1.19 nM
[48]
  IC50: 1.71 nM
[49]
  IC50: 1.09 nM

## C[C@@H](Oc1cc(-c2cnn(C3CCNCC3)c2)cnc1N)c1c(Cl)ccc(F)c1Cl [CRIZOTINIB]
[1]
  IC50: > 2000 nM
[2]
  IC50: > 2000 nM
[3]
  IC50: > 2000 nM
[4]
  IC50: > 2000 nM
[5]
  IC50: > 2000 nM
[6]
  IC50: > 2000 nM
[7]
  IC50: > 2000 nM
[8]
  IC50: > 2000 nM
[9]
  IC50: > 2000 nM
[10]
  IC50: > 2000 nM
[11]
  IC50: > 2000 nM
[12]
  IC50: > 2000 nM
[13]
  IC50: > 2000 nM
[14]
  IC50: > 2000 nM
[15]
  IC50: 750 nM
[16]
  IC50: > 2000 nM
[17]
  IC50: > 2000 nM
[18]
  IC50: > 2000 nM
[19]
  IC50: 858 nM
[20]
  IC50: > 2000 nM
[21]
  IC50: > 2000 nM
[22]
  IC50: > 2000 nM
[23]
  IC50: > 2000 nM
[24]
  IC50: > 2000 nM
[25]
  IC50: > 2000 nM
[26]
  IC50: > 2000 nM
[27]
  IC50: > 2000 nM
[28]
  IC50: > 2000 nM
[29]
  IC50: 106 nM
[30]
  IC50: > 2000 nM
[31]
  IC50: > 2000 nM
[32]
  IC50: > 2000 nM
[33]
  IC50: > 2000 nM
[34]
  IC50: > 2000 nM
[35]
  IC50: > 2000 nM
[36]
  IC50: > 2000 nM
[37]
  IC50: > 2000 nM
[38]
  IC50: > 2000 nM
[39]
  IC50: > 2000 nM
[40]
  IC50: > 2000 nM
[41]
  IC50: > 2000 nM
[42]
  IC50: > 2000 nM
[43]
  IC50: > 2000 nM
[44]
  IC50: > 2000 nM
[45]
  IC50: 1060 nM
[46]
  IC50: > 2000 nM
[47]
  IC50: > 2000 nM
[48]
  IC50: > 2000 nM
[49]
  IC50: > 2000 nM
